Non-standard residues stand in square brackets, D forms with d. Residues, ends and D or L forms follow the SMILES beside them. Hyp = O=C(O)[C@@H]1C[C@@H](O)CN1

The text below walks through data of patent US5049506A, “Proline-containing decapeptides as substrates for factor XIII” (Behringwerke Aktiengesellschaft, priority 1987, dated 1991).

This assay deals with T1, factor XIII (Homo sapiens, UniProt P00488).
T1 sequence (P00488 39-732 limits assumed): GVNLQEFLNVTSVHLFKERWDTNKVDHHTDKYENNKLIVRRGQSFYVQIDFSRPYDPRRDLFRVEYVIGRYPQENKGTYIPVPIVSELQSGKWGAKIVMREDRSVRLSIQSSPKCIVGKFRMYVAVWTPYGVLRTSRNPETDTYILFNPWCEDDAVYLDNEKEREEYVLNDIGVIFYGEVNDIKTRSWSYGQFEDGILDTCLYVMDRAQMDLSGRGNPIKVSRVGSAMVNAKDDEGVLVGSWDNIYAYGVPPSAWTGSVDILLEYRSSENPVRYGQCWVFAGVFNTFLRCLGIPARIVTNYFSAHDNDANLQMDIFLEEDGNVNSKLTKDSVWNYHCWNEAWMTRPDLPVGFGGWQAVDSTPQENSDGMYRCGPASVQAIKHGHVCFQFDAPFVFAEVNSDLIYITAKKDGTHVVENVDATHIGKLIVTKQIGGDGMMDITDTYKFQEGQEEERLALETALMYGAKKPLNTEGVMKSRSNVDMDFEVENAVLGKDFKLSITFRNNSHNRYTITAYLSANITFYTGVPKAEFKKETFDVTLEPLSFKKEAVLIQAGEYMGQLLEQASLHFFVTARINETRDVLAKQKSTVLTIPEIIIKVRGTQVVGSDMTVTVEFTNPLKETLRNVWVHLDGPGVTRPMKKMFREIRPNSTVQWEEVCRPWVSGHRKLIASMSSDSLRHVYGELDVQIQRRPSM
Description: Determination of factor XIII activity by photometric measurement (peptide as substrate, NADH/GLDH-coupled ammonia detection). Type of assay: biochemical. The settings on record: decrease in extinction at 340 nm; factor XIII 0.6 U activated with thrombin at 37° C. for 10 min; 100 μl decapeptide amide solution (10 mg/ml in H2O); glycine ethyl ester. As for the experimental part:
To test the peptides for their suitability as substrates for the transglutaminase F XIII, a sample solution which contains factor XIII is activated in a buffer mixture which contains about 30mmol/1 calcium chloride at pH 7.6±0.5 with thrombin. The peptide solutions, a solution of an amine derivative, for example glycine ethyl ester or glycine methyl ester, ketoglutarate buffer, glutamic dehydrogenase and an NADH solution are then added. The liberation of ammonia from the decapeptide amide is then measured by means of the decrease in extinction at 340±15nm, and the activity of F XIII is determined.
50 μl of a solution containing factor XIII (0.6 U), which had been adjusted to pH 7.6 and which contained 50 millimolar HEPES, 150 milli molar sodium chloride and 30 millimolar CaC12, were incubated with 25 μl of thrombin solution (30 units dissolved in 1 ml physiological saline) in a 1 ml cuvette at 37° C. for 10 min. 700 μl of a buffer solution composed of triethanolamine pH 8.0, 2.2 g of alpha-ketoglutarate/liter and 133 mg of NADH/liter were added. The sample solution was then mixed with 25 μl of a solution of […] of glutamic dehydrogenase (about 120 units/mg), 100 ml of glycerol, pH 7, 100 μl of glycine ethyl ester (30 mg/ml in H2 O) and 100 μl of decapeptide amide solution (10 mg/ml in H2 O). The decrease in extinction was measured. The results of the kinetic measurement at 340 nm are to be found in the form of delta OD/min values in the following Tables.
In the case of `CC(C)C[C@H](NC(=O)[C@@H](NC(=O)[C@H](CCCCN)NC(=O)[C@H](CO)NC(=O)[C@H](CCC(N)=O)NC(=O)CNC(=O)[C@@H]1CCCN1C(=O)CNC(=O)[C@@H](N)CC(C)C)C(C)C)C(=O)NCC(N)=O` [Leu--Gly--Pro--Gly--Gln--Ser--Lys--Val--Leu--Gly--NH2] (H-LGPGQSKVLG-NH2), the “Delta OD/min” value was determined as 0.32 OD/min.

Regarding `CC[C@H](C)[C@H](NC(=O)[C@@H](NC(=O)[C@H](CCCCN)NC(=O)[C@H](CO)NC(=O)[C@H](CCC(N)=O)NC(=O)CNC(=O)[C@@H]1CCCN1C(=O)CNC(=O)[C@@H](N)CC(C)C)C(C)C)C(=O)NCC(N)=O` [Leu--Gly--Pro--Gly--Gln--Ser--Lys--Val--Ile--Gly--NH2] (H-LGPGQSKVIG-NH2), the “Delta OD/min” value was 0.35 OD/min.

Consider `CC(C)C[C@H](NC(=O)[C@@H](NC(=O)[C@H](CCCCN)NC(=O)[C@H](CO)NC(=O)[C@H](CCC(N)=O)NC(=O)CNC(=O)[C@@H]1C[C@@H](O)CN1C(=O)CNC(=O)[C@@H](N)CC(C)C)C(C)C)C(=O)NCC(N)=O` [Leu--Gly--Hyp--Gly--Gln--Ser--Lys--Val--Leu--Gly--NH2] (H-LG[Hyp]GQSKVLG-NH2), for which the “Delta OD/min” value was determined as 0.27 OD/min.
